Measurements published in PMC7349657, “Efficient Targeted Degradation via Reversible and Irreversible Covalent PROTACs” (Journal of the American Chemical Society, 2020).

How the values were obtained:
Ramos cells = assay: Metabolomic quantification of PROTAC cellular concentration; type: in vitro ADME, human; details: 2 hours; for Effective cellular concentration: 100 nM compound; for effective cellular concentration relative to IR-2 / effective cellular concentration relative to RC-2: 100 nM
Description: Raw data were analyzed using the MaxQuant software suite 1.6.0.16
(www.maxquant.org) with the Andromeda search engine2. The higher-energy collisional dissociation (HCD) MS/MS spe ctra were searched against an in silico tryptic digest of Homo sapiens proteins from the UniProt/Swiss-Prot sequence databas e (v. July 2019), including common contaminant proteins. All MS/MS spectra were searched with the following MaxQuant parameters: acetyl (protein N -terminus) and methionine oxidation as variable modifications; cysteine carbamidomethylation was set as fixed modification for all samples, exc ept for the SDT samples in which case carbamidomethylation was set as variable modification; max 2 missed cleavages; and precursors were initially matched to 4. 5 ppm tolerance and 20 ppm for fragment spectra. Peptide spectrum matches and proteins were automatically filtered to a 1% false discovery rate based on Andromeda score, pep tide length, and individual peptide mass errors. Processing was conducted without a match between runs.
Proteins were identified and quantified based on at least two unique peptides and based on the label -free quantification (LFQ) 3 values reported by Ma xQu ant. Every data set contained three sets of four replicates (one set for DMSO treated samples, one set for 50 nM and one set for 100 nM). Proteins were excluded from analysis if within all three sets, there were less than three samples with directly detect ed and quantified protein. After this filtering step, missing values were replaced from a normal distribution.
Sample preparation: 106 Ramos cells were treated in three replicates with 100 nM compound for 2 hours. Cells were then washed twice by centrifuge at 200 rcf, 4°C for 5 minutes, removing the supernatant and washed with ice cold PBS. Samples were then centrifuged at 200 rcf, 4°C for 5 minutes, then supernatant was removed and samples were frozen at -80°C. Samples were dispersed in 100 µl of PBS. From each sample, 20 µ l were mixed with 20 µl of 10% SDS in 50 mM ammonium bicarbonate, heated to 96 ° C for 5 minutes, and the protein concentration was measured by BCA ass ay. Another 75 µ l were mixed with 0.5 mL of 50% acetonitrile:water, sonicated 3 times 10 second s on ice, centrifuged for 10 minutes at 15000 rpm at 4°C, and the supernatant was transferred to a new tube and lyophilized.
The residue was dissolved in 25% acetonitrile in water in a volume calculated from the BCA assay to obtain a con centration equivalent to 1.09 µg / µl protein. The samples were centrifuged at 21,000 g for 5 min utes to remove insoluble material. Standard curves from 0.1-100 ng/mL for each compound were used for quantitation.
The LC–MS/MS instrument consi sted of an Acquit y I-class UPLC system (Waters) and Xevo TQ-XS triple quadrupole mass spectrometer (Waters) equipped with an electrospray ion source. Chromatographic separation was done on UPLC BEH C18 column (50mm × 2.1mm, 1.7-µm, Waters) using 50-100% gradient of 95%-aqueous acetonitrile with 0.1% formic acid in aqueous 0.1% formic acid during 2.5 minut e s, with a flow rate of 0. 3 mL min−1 and column temperature 30°C. Samples kept at 10°C were automatically injected in a volume of 3µl.
MS parameters (positive ion mode): capillary voltage - 2. 0kV, source temperature - […]
Targeting BTK in CLL cells
After signing an informed consent form approved by the Tel Aviv Medical Center IRB according to the Helsinki Accords, blood samples were collected from pat ients fulfilling the standard criteria for CLL. Peripheral blood mononuclear cells (PBMC) were isolated by Ficoll (Uppsala, Sweden) density-gradient centrifugation. Viable frozen cells were kept in FCS (Biological Industries, Beit-Haemek, Israel) containing 10% DMSO (Merck, Darmstadt, Germany) and stored in liquid nitrogen. Before use, frozen cells were thawed and cultured at 37°C, 5% CO 2, in RPMI medium supplemented with 10% FCS, penicillin, streptomycin, and L-glutamine (all from Biological Industries, Be it-Haemek, Israel.) […]

C481S BTK = assay: In vitro kinase activity assay, C481S BTK (Nanosyn); details: 2 h preincubation
primary mouse B cells = assay: B cell activation after anti-IgM stimulation, CD86 staining; type: cell-based
Description: Lastly, we assessed the ability of the PROTACs to abrogate the activation of primary mouse B cells in response to B cell receptor stimulation. For this purpose, primary B cells were treated with anti-IgM for 18 h,[36],[37] followed by staining for CD86, a B cell activation surface marker (Figure 8; Supporting Figure 7). […]
supplemented with 300 mM imidazole). The His tag was cleaved by the addition of TEV protease with concomitant dialysis overnight into cleavage buffer (50 mM Tris, pH 8.0, 0.5 mM EDTA, 1 mM DTT) at 4°C. The resulting soluble protein was passed ov er Ni -NTA beads to remove the protease and purified further by gel filtration on a HiLoad_16/60_Superdex_75 (GE Healthcare) column equilibrated with 20 mM Tris, pH 8.0, 50 mM NaCl, 1 mM DTT. The pure protein was then flash-frozen in liquid nitrogen and stored at −80°C.
C57BL/6 mice were purchased from Harlan (Rehovot, Israel) and maintained in a pathogen-free facility, experiments were carried on 8-12 weeks old male mice. All exp eriments with mice were approved by the Weizmann Institute Animal Care and Use Committee.
Splenic cells from C57BL/6 mice were isolated by forcing spleen tissue through mesh into PBS containing 2% fetal calf serum and 1 mM EDTA and red blood cells were depleted by lysis buffer. Cells were cultured in 96-well U-b ottom dishes (1x10^6 cells/m L in RPMI 10% […]
nM, 10 nM, 1 nM, 0.1 nM) for 24 hours at 37° C in 5% humidified CO2 incubator. Following a 24 hours incubation, cells were stimulated with anti-IgM overnight (5 µg/mL, Sigma-Aldrich). Subsequently, cells were stained with anti-B220 (clone RA3-6B2, Biolegend) and anti-CD86 (clone GL-1, Biolegend) antibodies for 30 minutes at 4°C. Single cell suspensions were analyzed by a flow cytometer (CytoFlex, Beckman Coulter).
Cells were analyzed by intensity based, label-free mass spectrometry based proteomics.
Sample preparation: 106 Ramos cells were treated in four replicates with either compound or DMSO for 24 hours. Cells were then washed twice by centrifuge at 200 rcf, 4°C for 5 minutes, removing the supernatant and washed with ice cold PBS. Samp les were then centrifuged at 200 rcf, 4°C for 5 minutes, then supernatant was removed and samples were frozen at -80°C.
Samples were dispersed in 75 µl of 50 mM ammonium bicarbonate, and transferred to 1.8 mL glass vials. 75 µl of 10% SDS in 50 mM ammonium bicarbonate were added and the samples were heated to 96° C for 6 minutes. The samples were sonicated thoroughly in a sonication bath until the DNA was sheared as indicated by reduction in viscosity to level enabling easy pipettation. Total protein concentration was estimated using BCA as say and 30 µg from each sample was taken for the experiment.

[1] = anti-IgM stimulation, PROTAC 24 h

| Compound | Effective cellular concentration (Ramos cells) | fold reduction in potency, C481S vs wild-type BTK (C481S BTK) | inhibition of B cell activation compared to ibrutinib (primary mouse B cells; at 1 μM) | inhibition of B cell activation (CD86) (primary mouse B cells; [1]) | inhibition of B cell activation compared to ibrutinib (primary mouse B cells; [1]) | effective cellular concentration relative to IR-2 (Ramos cells) [times] | effective cellular concentration relative to RC-2 (Ramos cells) [times] |
| --- | --- | --- | --- | --- | --- | --- | --- |
| N#CC(=CCCCCOCCOCCOCCOCCOc1cccc2c1C(=O)N(C1CCC(=O)NC1=O)C2=O)C(=O)N1CCCC(n2nc(-c3ccc(Oc4ccccc4)cc3)c3c(N)ncnc32)C1 (stereo not drawn) [RC-2] | 0.93 ± 0.06 pg compound / µg total protein | 68 fold | superior activity to ibrutinib |  |  |  |  |
| Nc1ncnc2c1c(-c1ccc(Oc3ccccc3)cc1)nn2C1CCCN(C(=O)C=CCCCCOCCOCCOCCOCCOc2cccc3c2C(=O)N(C2CCC(=O)NC2=O)C3=O)C1 (stereo not drawn) [IR-2] | 4.1 ± 0.7 pg compound / µg total protein | only slight sensitivity to the mutation |  | strongest effect | superior inhibition compared to ibrutinib |  |  |
| CC(C)(C=C(C#N)C(=O)N1CCCC(n2nc(-c3ccc(Oc4ccccc4)cc3)c3c(N)ncnc32)C1)CCCOCCOCCOCCOCCOc1cccc2c1C(=O)N(C1CCC(=O)NC1=O)C2=O (stereo not drawn) [RC-3] | 10.7 ± 3.1 pg compound / µg total protein | > 1000 fold | superior activity to ibrutinib |  |  | ~2 | ~10 |
| Nc1ncnc2c1c(-c1ccc(Oc3ccccc3)cc1)nn2C1CCCN(C(=O)CCCCCCOCCOCCOCCOCCOc2cccc3c2C(=O)N(C2CCC(=O)NC2=O)C3=O)C1 (stereo not drawn) [NC-1] | 8.6 ± 2.6 pg compound / µg total protein | < 2 fold |  | strongest effect | superior inhibition compared to ibrutinib | ~2 | ~10 |
